Source: the supplement of paper PMC8617591

Key:
[1] = system: Mycobacterium tuberculosis Erdman (autoluminescent); assay: total FIC50 (Loewe) at 50% inhibition, three-drug combination (log2); higher = more antagonistic
Method: (§1)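 DiaMOND equipotent three-drug combination dose responses (10 doses, 1.5- or 2-fold spacing, centred on IC90) against autoluminescent M. tuberculosis Erdman in 8 in vitro models. Read-out is OD600, or luminescence for the intracellular and dormancy models, normalised to untreated wells. Hill-fit Einf, AUC25 and GRinf are potency metrics; FIC50 and FIC90 are total Loewe fractional inhibitory concentrations as log2 (negative = synergy).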

[2] = system: Mycobacterium tuberculosis Erdman (autoluminescent); assay: total FIC90 (Loewe) at 90% inhibition, three-drug combination (log2); higher = more antagonistic
Method: as §1

[3] = system: Mycobacterium tuberculosis Erdman (autoluminescent); assay: Einf, fitted maximum growth inhibition of three-drug combination (fraction); higher = stronger maximal inhibition
Method: as §1

[4] = system: Mycobacterium tuberculosis Erdman (autoluminescent); assay: AUC25, normalised area under dose response up to IC25 (three-drug combination) (fraction (0-1)); higher = more potent at low dose
Method: as §1

[5] = system: Mycobacterium tuberculosis Erdman (autoluminescent); assay: GRinf, maximum normalised growth rate inhibition (three-drug combination) (unitless (-1 to 1)); higher = less effect (negative = killing)
Method: as §1

NNC(=O)c1ccncc1 [isoniazid] + O=[N+]([O-])c1cn2c(n1)OC[C@@H](OCc1ccc(OC(F)(F)F)cc1)C2 [pretomanid] + NC(=O)c1cnccn1 [pyrazinamide]
Conditions	AUC25, [4]	Einf, [3]	GRinf, [5]	total FIC50, [1]	total FIC90, [2]
in vitro model: acidic pH 5.7, time point: constant (~7 days, model-specific)	0.0986	0.815	-0.16	-0.198	–
in vitro model: acidic pH 5.7, time point: terminal (~4-5 doublings, model-specific)	0.0871	0.976	-0.481	-0.0964	-0.184
in vitro model: intracellular J774, time point: constant = terminal	–	1	-0.492	–	0.732

Conditions	AUC25, [4]	Einf, [3]	GRinf, [5]	total FIC50, [1]	total FIC90, [2]
in vitro model: butyrate, time point: constant (~7 days, model-specific)	0.0971	0.946	-0.0723	0.158	0.768
in vitro model: butyrate, time point: terminal (~4-5 doublings, model-specific)	0.0657	0.972	-0.0263	0.227	0.423
in vitro model: cholesterol 0.05 mM, time point: constant (~7 days, model-specific)	0.106	0.696	-0.21	–	–
in vitro model: cholesterol 0.05 mM, time point: terminal (~4-5 doublings, model-specific)	0.0922	0.924	-0.353	5.94	–
in vitro model: cholesterol-high 0.2 mM, time point: constant (~7 days, model-specific)	0.0717	0.874	-0.172	0.524	–
in vitro model: cholesterol-high 0.2 mM, time point: terminal (~4-5 doublings, model-specific)	0.0681	1	-0.653	0.832	0.548
in vitro model: dormancy (butyrate + nitrate, low O2), time point: constant (~7 days, model-specific)	0.0747	0.882	0.238	-0.215	-0.286
in vitro model: dormancy (butyrate + nitrate, low O2), time point: terminal (~4-5 doublings, model-specific)	0.0455	0.984	-0.172	-0.137	-0.122
in vitro model: standard 7H9 glycerol, time point: constant = terminal	0.0648	0.923	0.0829	0.311	–
in vitro model: valerate, time point: constant (~7 days, model-specific)	0.115	0.888	-0.0645	-0.24	–
in vitro model: valerate, time point: terminal (~4-5 doublings, model-specific)	0.0719	0.922	0.077	0.0468	0.0214

CC(=O)NC[C@H]1CN(c2ccc(N3CCOCC3)c(F)c2)C(=O)O1 [linezolid] + CO[C@H]1/C=C/O[C@@]2(C)Oc3c(C)c(O)c4c(O)c(c(/C=N/N5CCN(C6CCCC6)CC5)c(O)c4c3C2=O)NC(=O)/C(C)=C\C=C\[C@H](C)[C@H](O)[C@@H](C)[C@@H](O)[C@@H](C)[C@H](OC(C)=O)[C@@H]1C [rifapentine] + CO[C@H]1/C=C/O[C@@]2(C)Oc3c(C)c(O)c4c(O)c(c(/C=N/N5CCN(C)CC5)c(O)c4c3C2=O)NC(=O)/C(C)=C\C=C\[C@H](C)[C@H](O)[C@@H](C)[C@@H](O)[C@@H](C)[C@H](OC(C)=O)[C@@H]1C [rifampicin]
Conditions	AUC25, [4]	Einf, [3]	GRinf, [5]	total FIC50, [1]	total FIC90, [2]
in vitro model: acidic pH 5.7, time point: constant (~7 days, model-specific)	0.0833	0.893	-0.162	0.407	–
in vitro model: acidic pH 5.7, time point: terminal (~4-5 doublings, model-specific)	0.0709	0.979	-0.204	0.327	0.0907
in vitro model: intracellular J774, time point: constant = terminal	–	0.93	-0.12	–	-0.258

Conditions	AUC25, [4]	Einf, [3]	GRinf, [5]	total FIC50, [1]	total FIC90, [2]
in vitro model: butyrate, time point: constant (~7 days, model-specific)	0.0767	0.869	0.14	0.125	–
in vitro model: butyrate, time point: terminal (~4-5 doublings, model-specific)	0.0594	0.933	0.106	0.0289	-0.462
in vitro model: cholesterol 0.05 mM, time point: constant (~7 days, model-specific)	0.147	0.654	-0.259	0.106	–
in vitro model: cholesterol 0.05 mM, time point: terminal (~4-5 doublings, model-specific)	0.127	0.909	-0.305	-0.0658	0.0643
in vitro model: cholesterol-high 0.2 mM, time point: constant (~7 days, model-specific)	0.104	0.934	-0.348	0.114	0.179
in vitro model: cholesterol-high 0.2 mM, time point: terminal (~4-5 doublings, model-specific)	0.0979	1	-0.881	0.344	0.213
in vitro model: dormancy (butyrate + nitrate, low O2), time point: constant (~7 days, model-specific)	0.0711	0.884	0.158	0.564	0.837
in vitro model: dormancy (butyrate + nitrate, low O2), time point: terminal (~4-5 doublings, model-specific)	0.0539	0.965	-0.00168	-0.00521	0.318
in vitro model: standard 7H9 glycerol, time point: constant = terminal	0.0512	0.879	0.155	0.208	–
in vitro model: valerate, time point: constant (~7 days, model-specific)	0.0508	0.862	0.0506	0.124	–
in vitro model: valerate, time point: terminal (~4-5 doublings, model-specific)	0.029	0.933	0.0203	0.039	-0.378

CC(=O)NC[C@H]1CN(c2ccc(N3CCOCC3)c(F)c2)C(=O)O1 [linezolid] + COc1c(N2C[C@@H]3CCCN[C@@H]3C2)c(F)cc2c(=O)c(C(=O)O)cn(C3CC3)c12 [moxifloxacin] + CO[C@H]1/C=C/O[C@@]2(C)Oc3c(C)c(O)c4c(O)c(c(/C=N/N5CCN(C6CCCC6)CC5)c(O)c4c3C2=O)NC(=O)/C(C)=C\C=C\[C@H](C)[C@H](O)[C@@H](C)[C@@H](O)[C@@H](C)[C@H](OC(C)=O)[C@@H]1C [rifapentine]
Conditions	AUC25, [4]	Einf, [3]	GRinf, [5]	total FIC50, [1]	total FIC90, [2]
in vitro model: acidic pH 5.7, time point: constant (~7 days, model-specific)	0.0572	0.8	0.0276	0.827	–
in vitro model: acidic pH 5.7, time point: terminal (~4-5 doublings, model-specific)	0.0558	0.976	-0.0724	0.952	0.684
in vitro model: intracellular J774, time point: constant = terminal	–	0.911	-0.0811	–	0.0429

Conditions	AUC25, [4]	Einf, [3]	GRinf, [5]	total FIC50, [1]	total FIC90, [2]
in vitro model: butyrate, time point: constant (~7 days, model-specific)	0.0841	0.876	0.149	0.365	0.691
in vitro model: butyrate, time point: terminal (~4-5 doublings, model-specific)	0.0527	0.929	0.0958	0.352	0.196
in vitro model: cholesterol 0.05 mM, time point: constant (~7 days, model-specific)	0.157	0.694	-0.35	0.586	–
in vitro model: cholesterol 0.05 mM, time point: terminal (~4-5 doublings, model-specific)	0.129	0.909	-0.32	0.581	-0.237
in vitro model: cholesterol-high 0.2 mM, time point: constant (~7 days, model-specific)	0.11	0.913	-0.639	0.553	0.386
in vitro model: cholesterol-high 0.2 mM, time point: terminal (~4-5 doublings, model-specific)	0.113	1	-0.938	0.377	0.836
in vitro model: dormancy (butyrate + nitrate, low O2), time point: constant (~7 days, model-specific)	0.0602	0.862	0.223	1.04	0.925
in vitro model: dormancy (butyrate + nitrate, low O2), time point: terminal (~4-5 doublings, model-specific)	0.0346	0.979	-0.11	1.31	1.02
in vitro model: standard 7H9 glycerol, time point: constant = terminal	0.0607	0.902	0.0317	0.709	0.569
in vitro model: valerate, time point: constant (~7 days, model-specific)	0.109	0.834	0.129	0.0907	–
in vitro model: valerate, time point: terminal (~4-5 doublings, model-specific)	0.0452	0.914	0.0886	0.472	0.387
